According to patent US9284283B2, “Macrocyclic compounds for modulating IL-17” (ENSEMBLE THERAPEUTICS CORPORATION, priority 2012, dated 2016):

target: T1, recombinant human IL17a (binding to its receptor IL17R) (Homo sapiens, UniProt Q16552); assay: IL-17 competition ELISA I (IL17a coated, IL17R/Fc binding); details: not given
T1 construct: purchased R&D Systems 317-ILB (IL17a); 177-IR (IL17R/Fc)
T1 sequence (Q16552 20-155 limits assumed): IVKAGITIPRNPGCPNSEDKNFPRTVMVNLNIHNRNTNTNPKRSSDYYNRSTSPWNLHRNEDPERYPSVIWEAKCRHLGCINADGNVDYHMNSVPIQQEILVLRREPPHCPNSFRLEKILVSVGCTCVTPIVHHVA
Procedure, shortened: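 Plates coated with 20 nM recombinant human IL17a received compound dilutions and 12 nM IL17R/Fc (final) for 30 min at room temperature. Bound receptor was detected with HRP anti-human Fc and TMB, read at 450 nm. IC50 came from a 4-parameter logistic fit between no-competitor and blank controls.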

| Compound | IC50 [nM] |
| --- | --- |
| CC(=O)N[C@@H](Cc1ccccc1Cl)C(=O)Nc1ccc(C[C@H]2NC(=O)CC3(CCCC3)CC(=O)N(CCO)CCCCCNC(=O)CNC2=O)cc1 [Compound 169] | 100 to 1000 |
| O=C1CNC(=O)[C@@H](Cc2ccc(NC(=O)[C@H](Cc3ccccc3Cl)NC(=O)Cc3ccccc3)cc2)NC(=O)CC2(CCCC2)CC(=O)NCCOCCN1 [Compound 209] | < 100 |
| CC(C)(C)C(=O)N[C@@H](Cc1ccccc1Cl)C(=O)Nc1ccc(C[C@H]2NC(=O)CC3(CCCC3)CC(=O)NCCCCCNC(=O)CNC2=O)cc1 [Compound 206] | < 100 |
| CC[C@H](C)[C@H](NC(=O)Cc1ccccc1)C(=O)Nc1ccc(C[C@H]2NC(=O)CC3(CCCC3)CC(=O)N[C@H](C(=O)OC)CCCCNC(=O)CCCNC2=O)cc1 [Compound 122] | 1000 to 10000 |
| O=C1CNC(=O)[C@@H](Cc2ccc(NC(=O)[C@H](Cc3ccccc3Cl)NC(=O)c3cncnc3)cc2)NC(=O)CC2(CCCC2)CC(=O)NCCCCCN1 [Compound 201] | 100 to 1000 |
| CN1CC(=O)NCCCCCNC(=O)CC2(CCCC2)CC(=O)N[C@H](Cc2ccc(NC(=O)[C@H](Cc3ccccc3Cl)NC(=O)Cc3ccccc3)cc2)C1=O [Compound 188] | 1000 to 10000 |

Now from value to compound:

| IC50 [nM] | Compound |
| --- | --- |
| < 100 | O=C1CNC(=O)[C@@H](Cc2ccc(NC(=O)[C@H](Cc3ccccc3Cl)NC(=O)Cc3ccccc3O)cc2)NC(=O)CC2(CCCC2)CC(=O)NCCCCCN1 [Compound 216] |
| < 100 | CC(=O)N[C@@H](Cc1ccccc1Cl)C(=O)Nc1ccc(C[C@H]2NC(=O)CC3(CCCC3)CC(=O)NCCCCCNC(=O)CNC2=O)cc1 [Compound 153] |
| < 100 | O=C1CNC(=O)[C@@H](Cc2ccc(NC(=O)[C@H](Cc3ccccc3Br)NC(=O)Cc3ccc(O)cc3)cc2)NC(=O)CC2(CCCC2)CC(=O)NCCCCCN1 [Compound 211] |
| < 100 | O=C1CNC(=O)[C@@H](Cc2ccc(NC(=O)[C@@H](NC(=O)Cc3ccc(O)cc3)C3CCCCC3)cc2)NC(=O)CC2(CCCC2)CC(=O)NCCCCCN1 [Compound 192] |
| 100 to 1000 | O=C1CNC(=O)[C@@H](Cc2ccc(NC(=O)[C@H](Cc3ccccc3Cl)NC(=O)c3ccccn3)cc2)NC(=O)CC2(CCCC2)CC(=O)NCCCCCN1 [Compound 195] |

target: T2, IL17A (Homo sapiens, UniProt Q16552); assay: Surface Plasmon Resonance (SPR) analysis of compound interactions with IL17A; details: SPR binding to IL17A
T2 sequence (Q16552 24-155): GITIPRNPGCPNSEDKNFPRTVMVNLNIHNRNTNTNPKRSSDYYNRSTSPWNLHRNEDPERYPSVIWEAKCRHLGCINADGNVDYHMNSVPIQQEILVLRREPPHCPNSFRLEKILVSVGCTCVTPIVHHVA
Method: SPR analysis was carried out with a GE Healthcare (Piscataway, N.J.) Biacore X100 system. Typically, the chip (NTA Biacore Biosensor chip; GE Healthcare BR-1000-34) was first conditioned by injection of 0.35 M EDTA, which also served to remove any immobilized proteins from previous runs. Before immobilization of the recombinant 6-His-tagged IL17, the chip was washed with 0.5 mM nickel chloride in NTA buffer (10 mM HEPES buffer, 0.15 M sodium chloride, 10 μM ethylene diamine tetraacetic acid, 0.005% v/v surfactant P20 (GE Healthcare BR-1000-54)) to form a nickel chelate on the chip. IL17 protein was immobilized onto a NTA chip through its 6-His tag. IL17A was typically injected at 0.25 μM for 60-120 seconds, followed by a stabilization step washing with NTA+0.5% DMSO for 120 seconds or longer.
Five 2-fold or 3-fold serial dilutions of test compound were injected serially onto the chip. All steps were conducted using NTA buffer containing 0.5% v/v dimethylsulfoxide (DMSO). Compounds were diluted from stock solutions of 10 mM concentration in 100% DMSO with NTA buffer to obtain 50 μM solutions in NTA+0.5% DMSO. Subsequent 2× or 3× dilutions were made in NTA+0.5% DMSO. Compound was generally injected for 180 seconds followed by washing the chip in buffer alone for 120 seconds. The rate of refractive index change (RU units/time) and the maximum extend of RU change was measured during the “on” phase of analyte injection, followed by measuring the rate during the “off” phase.
Kinetic parameter fits were conducted using the Biacore SPR Evaluation Program (GE Healthcare) for 1:1 molecular binding fits, after subtracting the baseline average of 2 or more runs in which no analyte was injected. This program then reports the best fit average for the “on” rate (Ka), the “off” rate (Kd) and the dissociation constant (KD) (Chaiken, I et al., Anal Biochem 201, 197-210 (1992)). A separate program in the Biacore SPR Evaluation Program then calculates the best fit for Kd based upon the extent of binding alone (RU units bound) at each concentration of analyte and reports the best fit Kd by best fit to a Lineweaver-Burke plot. Typically, the Kd value calculated through both means agreed within a factor of three.
The presence and activity of IL17 on the NTA chip was routinely confirmed three ways: • 1) An increase in response units (RU) upon immobilization confirms that the IL17 was immobilized on the chip; • 2) Anti-IL17 was also injected on the chip to confirm the presence of IL17; and • 3) IL17R was injected onto the chip to confirm that the immobilized IL17 retained its binding activity for its receptor. Negative controls to access specificity for compound binding were conducted by immobilizing unrelated, but his-tagged, proteins (such as cyclophilin D) and conducting the same analysis as done with IL17A.

| Compound | Kd [nM] |
| --- | --- |
| CC(=O)N[C@@H](Cc1ccccc1Cl)C(=O)Nc1ccc(C[C@H]2NC(=O)CC3(CCCC3)CC(=O)N(CCO)CCCCCNC(=O)CNC2=O)cc1 [Compound 169] | < 100 |
| O=C1CNC(=O)[C@@H](Cc2ccc(NC(=O)[C@H](Cc3ccccc3Cl)NC(=O)Cc3ccccc3)cc2)NC(=O)CC2(CCCC2)CC(=O)NCCOCCN1 [Compound 209] | < 100 |
| CC(C)(C)C(=O)N[C@@H](Cc1ccccc1Cl)C(=O)Nc1ccc(C[C@H]2NC(=O)CC3(CCCC3)CC(=O)NCCCCCNC(=O)CNC2=O)cc1 [Compound 206] | < 100 |
| CC[C@H](C)[C@H](NC(=O)Cc1ccccc1)C(=O)Nc1ccc(C[C@H]2NC(=O)CC3(CCCC3)CC(=O)N[C@H](C(=O)OC)CCCCNC(=O)CCCNC2=O)cc1 [Compound 122] | 1000 to 10000 |
| O=C1CNC(=O)[C@@H](Cc2ccc(NC(=O)[C@H](Cc3ccccc3Cl)NC(=O)c3cncnc3)cc2)NC(=O)CC2(CCCC2)CC(=O)NCCCCCN1 [Compound 201] | < 100 |
| CN1CC(=O)NCCCCCNC(=O)CC2(CCCC2)CC(=O)N[C@H](Cc2ccc(NC(=O)[C@H](Cc3ccccc3Cl)NC(=O)Cc3ccccc3)cc2)C1=O [Compound 188] | 100 to 1000 |

Continued, values first:

| Kd [nM] | Compound |
| --- | --- |
| < 100 | O=C1CNC(=O)[C@@H](Cc2ccc(NC(=O)[C@H](Cc3ccccc3Cl)NC(=O)Cc3ccccc3O)cc2)NC(=O)CC2(CCCC2)CC(=O)NCCCCCN1 [Compound 216] |
| < 100 | CC(=O)N[C@@H](Cc1ccccc1Cl)C(=O)Nc1ccc(C[C@H]2NC(=O)CC3(CCCC3)CC(=O)NCCCCCNC(=O)CNC2=O)cc1 [Compound 153] |
| < 100 | O=C1CNC(=O)[C@@H](Cc2ccc(NC(=O)[C@H](Cc3ccccc3Br)NC(=O)Cc3ccc(O)cc3)cc2)NC(=O)CC2(CCCC2)CC(=O)NCCCCCN1 [Compound 211] |
| < 100 | O=C1CNC(=O)[C@@H](Cc2ccc(NC(=O)[C@@H](NC(=O)Cc3ccc(O)cc3)C3CCCCC3)cc2)NC(=O)CC2(CCCC2)CC(=O)NCCCCCN1 [Compound 192] |
| 100 to 1000 | O=C1CNC(=O)[C@@H](Cc2ccc(NC(=O)[C@H](Cc3ccccc3Cl)NC(=O)c3ccccn3)cc2)NC(=O)CC2(CCCC2)CC(=O)NCCCCCN1 [Compound 195] |

target: T3, biotinylated human IL-17 (binding to IL17R/Fc) (Homo sapiens, UniProt Q16552); assay: IL-17 competition ELISA II (captured IL17R/Fc, biotinylated IL-17); details: not given
T3 construct: purchased R&D Systems 317-ILB (IL-17, biotinylated); 177-IR (IL17R/Fc)
T3 sequence (Q16552 20-155 limits assumed): T1 sequence (Q16552 20-155 limits assumed)
Procedure, shortened: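 Competition read-out: absorbance at 450 nm after streptavidin-HRP/TMB detection, fitted to a 4-parameter logistic model bounded by no-competitor and blank wells to give IC50. Compound was serially diluted 5-fold from 1 μM alongside 20 nM (stock) biotinylated IL-17 on IL17R/Fc (10 nM) captured via goat anti-human IgG, 30 min at room temperature.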

| Compound | IC50 [nM] |
| --- | --- |
| O=C1CNC(=O)[C@@H](Cc2ccc(NC(=O)[C@H](Cc3ccccc3Cl)NC(=O)c3ccccn3)cc2)NC(=O)CC2(CCCC2)CC(=O)NCCCCCN1 [Compound 195] | < 100 |

test system: IL-17A induced secretion of IL-6 in primary human RASF cells; assay: Inhibition of IL17A induced secretion of IL6 in human rheumatoid arthritis synovial fibroblast (RASF) cells; type: cell-based; details: Homo sapiens, Fibroblast
Procedure, shortened: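 Primary RASF cells (passage 2-8) stimulated 20 h at 37 °C with rhIL-17A (30 ng/mL) pre-incubated 1 h with compound (final 0.03-25 μM, 0.25% DMSO). Supernatant IL-6 measured by ELISA, normalized to WST1 viability; triplicates.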

| Compound | IC50 [nM] |
| --- | --- |
| O=C1CNC(=O)[C@@H](Cc2ccc(NC(=O)[C@H](Cc3ccccc3Cl)NC(=O)Cc3ccccc3O)cc2)NC(=O)CC2(CCCC2)CC(=O)NCCCCCN1 [Compound 216] | 1000 to 10000 |
| CC(=O)N[C@@H](Cc1ccccc1Cl)C(=O)Nc1ccc(C[C@H]2NC(=O)CC3(CCCC3)CC(=O)NCCCCCNC(=O)CNC2=O)cc1 [Compound 153] | 1000 to 10000 |
| CC(=O)N[C@@H](Cc1ccccc1Cl)C(=O)Nc1ccc(C[C@H]2NC(=O)CC3(CCCC3)CC(=O)N(CCO)CCCCCNC(=O)CNC2=O)cc1 [Compound 169] | > 10000 |
| O=C1CNC(=O)[C@@H](Cc2ccc(NC(=O)[C@H](Cc3ccccc3Cl)NC(=O)Cc3ccccc3)cc2)NC(=O)CC2(CCCC2)CC(=O)NCCOCCN1 [Compound 209] | 1000 to 10000 |
| CC(C)(C)C(=O)N[C@@H](Cc1ccccc1Cl)C(=O)Nc1ccc(C[C@H]2NC(=O)CC3(CCCC3)CC(=O)NCCCCCNC(=O)CNC2=O)cc1 [Compound 206] | 1000 to 10000 |
| CC[C@H](C)[C@H](NC(=O)Cc1ccccc1)C(=O)Nc1ccc(C[C@H]2NC(=O)CC3(CCCC3)CC(=O)N[C@H](C(=O)OC)CCCCNC(=O)CCCNC2=O)cc1 [Compound 122] | 1000 to 10000 |
| O=C1CNC(=O)[C@@H](Cc2ccc(NC(=O)[C@H](Cc3ccccc3Cl)NC(=O)c3cncnc3)cc2)NC(=O)CC2(CCCC2)CC(=O)NCCCCCN1 [Compound 201] | > 10000 |
| O=C1CNC(=O)[C@@H](Cc2ccc(NC(=O)[C@H](Cc3ccccc3Br)NC(=O)Cc3ccc(O)cc3)cc2)NC(=O)CC2(CCCC2)CC(=O)NCCCCCN1 [Compound 211] | 1000 to 10000 |
| O=C1CNC(=O)[C@@H](Cc2ccc(NC(=O)[C@@H](NC(=O)Cc3ccc(O)cc3)C3CCCCC3)cc2)NC(=O)CC2(CCCC2)CC(=O)NCCCCCN1 [Compound 192] | 1000 to 10000 |
